Values quoted from earlier work as cited in patent publication US12661368B2, “Maribavir isomers, compositions, methods of making and methods of using” (Takeda Pharmaceutical Company Limited, priority 2010, dated 2026).

Experiments:
[1] = system: cytomegalovirus (CMV); conditions: Phase 3, 300 Study, allogeneic SCT patients, prophylaxis
[2] = system: cytomegalovirus (CMV); conditions: Phase 2, 200 Study

For `CC(C)Nc1nc2cc(Cl)c(Cl)cc2n1[C@H]1O[C@@H](CO)[C@H](O)[C@@H]1O` [maribavir, 5,6-dichloro-2-(isopropylamino)-1-(β-L-ribofuranosyl)-1H-benzimidazole], the “key secondary endpoints of the study” value [1] is given as “failed to meet its key secondary endpoints”, the “reducing the rate of CMV disease, maribavir versus placebo (primary analysis)” value ([1]; dosing fasted or fed) is given as “no statistically significant difference” and the tolerability profile ([2]; administration for up to 12 weeks, SCT patients) is given as “favorable tolerability profile”. For the same compound, the “rate of reactivation of CMV in recipients of allogeneic stem cell (bone marrow) transplants” value ([2]; prophylaxis, fasted dosing protocol, preliminary results) was “significant reduction”.
